Data on eleven molecules can be found in ChEMBL document CHEMBL1147934, “Discovery of a novel small molecule binding site of human survivin” (Bioorg Med Chem Lett, 2007).

The structures appear in SMILES notation. ≈ marks a conversion by molar mass, not a printed value.

The target in one data set is Baculoviral IAP repeat-containing protein 5 (Homo sapiens, UniProt O15392). Kind of data set: Binding affinity to human survivin expressed in Escherichia coli BL21 cells after 30 mins.
Baculoviral IAP repeat-containing protein 5, sequence (O15392 whole entry): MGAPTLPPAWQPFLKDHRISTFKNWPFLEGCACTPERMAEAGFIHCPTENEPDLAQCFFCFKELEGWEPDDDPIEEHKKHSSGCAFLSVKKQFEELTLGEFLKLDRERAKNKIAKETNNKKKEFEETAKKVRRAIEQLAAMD
Conditions: not given
Consider `CC1(C)NC(=O)N(C/C(COc2ccc(-c3ccc(OC(F)(F)F)cc3)cc2)=N/O)C1=O`, for which the dissociation constant (Kd) was under 10 µM.
Same read-out and setting: then `N#Cc1c(-c2ccccc2)cc(-c2ccccc2O)[nH]c1=O`, with 75 µM; and `Clc1cccc(Nc2ccc3ccccc3c2)c1`, with under 10 µM.
The same measure, in the same setting: then `N#Cc1c(-c2ccccc2)cc(-c2cc(Br)ccc2O)[nH]c1=O`, with 5 µM.
`Cc1ccnc(NC(=O)C2CCNCC2)c1` gave a Kd of 130 µM.
The same measure, in the same setting: then `N#Cc1c(-c2cc(-c3ccccc3)ccc2Cl)cc(-c2cc(Br)ccc2O)[nH]c1=O`, with over 4.3 µM; and `CCc1oc2ccccc2c1C(=O)c1cc(I)c(O)c(I)c1` [BENZIODARONE], with 8 µM.

Tested on in another data set: not listed separately
As to the kind of experiment: Solubility by nephelometry. In kind it is physicochemical.
Conditions: not given
As for `CC(=O)N1CCC(C(=O)N(C)Cc2cc(Cl)cc(-c3cc(-c4cc(C(F)(F)F)ccc4Cl)c(C#N)c(=O)[nH]3)c2O)CC1`, the solubility (kinetic) was over 32 µM.
Same read-out and setting: the figure for `CN(Cc1cc(Cl)cc(-c2cc(-c3cc(C(F)(F)F)ccc3Cl)c(C#N)c(=O)[nH]2)c1O)C(=O)C1CCN(C(=O)C2CCCCC2)CC1` is over 32 µM; for `COCC(=O)N1CCC(C(=O)N(C)Cc2cc(Cl)cc(-c3cc(-c4cc(C(F)(F)F)ccc4Cl)c(C#N)c(=O)[nH]3)c2O)CC1` it is over 32 µM; for `CCCC(=O)N1CCC(C(=O)N(C)Cc2cc(Cl)cc(-c3cc(-c4cc(C(F)(F)F)ccc4Cl)c(C#N)c(=O)[nH]3)c2O)CC1` it is over 32 µM.

Tested on in another data set: not listed separately
Kind of data set: Solubility at pH 7.4 by shake flask method. Conditions: buffer. Format: physicochemical.
The molecule `CC(=O)N1CCC(C(=O)N(C)Cc2cc(Cl)cc(-c3cc(-c4cc(C(F)(F)F)ccc4Cl)c(C#N)c(=O)[nH]3)c2O)CC1` displayed a thermodynamic solubility of 300 µM (≈ 186 µg/mL).
For `COCC(=O)N1CCC(C(=O)N(C)Cc2cc(Cl)cc(-c3cc(-c4cc(C(F)(F)F)ccc4Cl)c(C#N)c(=O)[nH]3)c2O)CC1`, the thermodynamic solubility was found to be 138 µM (≈ 89.9 µg/mL).

In general, Kd refers to the constant that tells how readily two partners part at equilibrium. A low value points to higher affinity. What is called solubility (kinetic) is solubility judged after dilution from a stock solution rather than from solid. The term thermodynamic solubility denotes solubility found after equilibrating the solid with the medium.
